This is an account of results in ChEMBL document CHEMBL1145283, “3-hydroxymethyl-7-(N-substituted aminosulfonyl)-1,2,3,4-tetrahydroisoquinoline inhibitors of phenylethanolamine N-methyltransferase that display remarkable potency and selectivity” (J Med Chem, 2005).

One may read the Ki as the equilibrium dissociation constant of an inhibitor or competing ligand from its target. A high value points to weaker binding.

For the assay, the target named is T1, Adrenergic receptor alpha-2 (Rattus norvegicus, UniProt P22086+P19328+P22909).
T1 sequence (P22086 whole entry): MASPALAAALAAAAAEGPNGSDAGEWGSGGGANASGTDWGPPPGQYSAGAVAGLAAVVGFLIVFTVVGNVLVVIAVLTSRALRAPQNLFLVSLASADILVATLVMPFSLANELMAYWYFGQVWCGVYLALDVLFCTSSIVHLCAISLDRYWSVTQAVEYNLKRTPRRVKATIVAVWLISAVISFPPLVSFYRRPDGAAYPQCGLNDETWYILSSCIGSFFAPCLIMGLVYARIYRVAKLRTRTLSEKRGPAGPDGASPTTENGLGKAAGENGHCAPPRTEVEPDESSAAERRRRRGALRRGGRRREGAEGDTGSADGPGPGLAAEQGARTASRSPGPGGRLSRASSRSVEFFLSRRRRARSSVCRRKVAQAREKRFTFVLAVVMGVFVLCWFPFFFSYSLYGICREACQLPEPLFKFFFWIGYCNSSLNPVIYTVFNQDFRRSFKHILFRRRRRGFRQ
T1 sequence (P19328 whole entry): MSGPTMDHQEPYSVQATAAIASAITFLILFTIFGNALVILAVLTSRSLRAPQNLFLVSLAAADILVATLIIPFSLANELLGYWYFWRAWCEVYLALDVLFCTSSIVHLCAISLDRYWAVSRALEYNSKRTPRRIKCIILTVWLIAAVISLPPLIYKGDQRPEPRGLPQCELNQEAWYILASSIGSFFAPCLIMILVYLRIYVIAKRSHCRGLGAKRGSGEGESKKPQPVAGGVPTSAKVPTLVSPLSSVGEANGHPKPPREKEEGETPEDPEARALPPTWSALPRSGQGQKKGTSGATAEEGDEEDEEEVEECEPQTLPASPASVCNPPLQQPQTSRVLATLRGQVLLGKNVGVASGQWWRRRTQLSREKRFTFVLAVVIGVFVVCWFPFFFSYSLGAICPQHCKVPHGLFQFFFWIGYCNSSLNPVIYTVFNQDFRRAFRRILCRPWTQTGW
T1 sequence (P22909 whole entry): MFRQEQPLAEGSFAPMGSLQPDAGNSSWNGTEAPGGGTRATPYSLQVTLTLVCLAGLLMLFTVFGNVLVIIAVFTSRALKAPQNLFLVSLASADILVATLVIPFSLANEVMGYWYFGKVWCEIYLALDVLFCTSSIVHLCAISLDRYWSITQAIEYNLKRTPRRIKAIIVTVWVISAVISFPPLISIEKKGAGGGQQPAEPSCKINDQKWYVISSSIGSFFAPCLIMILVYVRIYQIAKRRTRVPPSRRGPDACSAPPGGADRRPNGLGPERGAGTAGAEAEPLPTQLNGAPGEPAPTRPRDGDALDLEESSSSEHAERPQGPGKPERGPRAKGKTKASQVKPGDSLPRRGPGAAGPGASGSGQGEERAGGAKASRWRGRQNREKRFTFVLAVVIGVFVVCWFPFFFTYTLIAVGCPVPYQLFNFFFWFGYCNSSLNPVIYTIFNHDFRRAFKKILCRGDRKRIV
The assay can be described thus: In vitro inhibition of [3H]clonidine from alpha-2 adrenergic receptor of rat cortex.
For the compound `O=S(=O)(Nc1ccc(Cl)cc1)c1ccc2c(c1)CNC(CO)C2` (stereo not given), the Ki came to 53 µM. Turning to `CCCNS(=O)(=O)c1ccc2c(c1)CNC(CO)C2` (stereo not given), the Ki amounted to 230 µM. As to `O=S(=O)(NCC(F)(F)F)c1ccc2c(c1)CNC(CO)C2` (stereo not given), the Ki amounted to 340 µM. As to `O=S(=O)(c1ccc2c(c1)CNC(CO)C2)N1CCSCC1` (stereo not given), the Ki was 320 µM. The Ki values of the last two compounds are within 1.5-fold of each other. `CCNS(=O)(=O)c1ccc2c(c1)CNC(CO)C2` (stereo not given) showed a Ki of 210 µM. This Ki lies about 1.5-fold lower than the previous one.
